Measurements as given in patent US7071218B2, “N-substituted heterocycles for the treatment of hypercholesteremia, dyslipidemia and other metabolic disorders; cancer, and other diseases” (Incyte San Diego Incorporated, priority 2001, dated 2006).

What was measured:
[1] = tested on: 3T3-L1 cells; test: 3T3-L1 adipocyte differentiation (lipid content), alone or with rosiglitazone (BRL49653); assay type: cell-based, mouse; conditions: 7 days of treatment; for lipid accumulation / differentiation of 3T3-L1 cells by the compound alone: 1e-10M to 1e-5M; for inhibition of adipocyte differentiation / lipid accumulation induced by rosiglitazone (BRL49653): in combination with rosiglitazone
From the text: The mouse preadipocyte cell line 3T3-L1 has been extensively used to study adipocyte differentiation. Upon stimulation with differentiating agents, preadipocytes typically undergo one cell cycle expansion and then they are growth arrested and dramatically change their shape to become more rounded cells, loaded with lipids, in a fashion closely reflecting adipogenesis in vivo. In this well-known process of differentiation, peroxisome proliferator activated receptor gamma (PPARγ) and retinoid X receptor (RXR) play a key role. PPARγ binds as an obligatory heterodimer with RXR to specific responsive sequences in the promoter region of target genes. In the particular case of PPARγ/RXR heterodimers, both receptors can be activated via their specific ligands. As a consequence of such activation, adipocyte-specific genes are turned on (C/EBP, aP2, LPL, adipsin, etc) and adipocyte differentiation results. Because lipid accumulation is the endpoint of adipocyte differentiation, the quantification of lipids which have accumulated in cells upon treatment with the compound(s) of interest, will indicate the ability of that compound to trigger adipocyte differentiation. More importantly, the potency of that compound can be estimated as well based on the total amount of lipids accumulated. The amount of lipid measured at the end of the assay for each tested compound is here compared to that of Compound 73 at 0.1 μM, which is considered 100% (see FIG. 11A).
In the particular case of measuring the potential antagonistic activity of some compounds, the putative antagonist is combined together with an agonist (such as the PPARγ agonist BRL49653). Thus, the amount of lipids accumulated in response to BRL49653 (considered as 100% in this case), is decreased by the compound with antagonistic activity (see FIG. 11B).
Materials and Methods: Mouse embryo fibroblast 3T3-L1 cell line, from American Type Culture Collection (ATCC), was used as a model of adipocyte differentiation.
Growing medium (GM): DME Dulbecco's modified Eagle's medium containing 4500 mg/L glucose; 4 mM L-glutamine; 10 U/ml Pen-G; 10 mcg/ml and 10% Calf Serum (CS).
Differentiation medium (DM): DME Dulbecco's modified Eagle's medium containing 4500 mg/L glucose; 4 mM L-glutamine; 10 U/ml Pen-G; 10 mcg/ml and 10% Fetal Calf Serum (FCS). Cells are always kept at 10% CO2.
Cells were seeded at 3,000 cells/well in 96 well-tissue culture plates in growing medium.
Two days after reaching confluence, cells were treated with the different compounds of interest in DM (Day 0). Drugs were replaced every 2–3 days in DM. Differentiation was assessed after 7 days of treatment, by measuring the lipid content in the cells, using the Triglyceride (INFINITY) reagent (Quantitative assay). • Controls: All cells, including control cells (vehicle), are treated with the same volume of dimethyl sulfoxide (DMSO) never exceeding 0.1% final solvent concentration. As a positive control for differentiation, cells were treated with 10 μg insulin per ml and 2.5 μM dexamethasone (Ins/Dex).

[2] = target: T1, AKT1/PKBα (Homo sapiens, UniProt P31749); test: In vitro assay for AKT1/PKBα kinase activity inhibition; assay type: biochemical; conditions: at 5 μM, pre-incubation 10 minute at 30° C.
T1 construct: purchased Upstate 14-276
T1 sequence (P31749 whole entry): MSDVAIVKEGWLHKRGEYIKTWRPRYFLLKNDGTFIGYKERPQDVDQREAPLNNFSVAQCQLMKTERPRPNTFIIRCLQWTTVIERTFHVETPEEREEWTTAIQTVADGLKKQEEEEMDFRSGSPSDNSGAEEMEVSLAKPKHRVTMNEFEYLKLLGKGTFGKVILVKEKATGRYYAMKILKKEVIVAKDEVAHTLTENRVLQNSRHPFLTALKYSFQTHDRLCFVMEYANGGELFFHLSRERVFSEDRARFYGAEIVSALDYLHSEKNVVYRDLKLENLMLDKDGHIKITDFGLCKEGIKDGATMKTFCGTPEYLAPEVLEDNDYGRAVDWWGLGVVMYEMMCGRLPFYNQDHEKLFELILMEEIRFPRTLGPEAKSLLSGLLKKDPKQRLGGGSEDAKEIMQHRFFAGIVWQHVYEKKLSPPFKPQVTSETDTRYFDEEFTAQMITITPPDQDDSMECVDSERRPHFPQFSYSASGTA
Procedure: The assay was performed using a similar approach as described by Standaert, Mary L., et al. J. Biol. Chem. 1999, 274, 25308–25316; and Aman, M. J. et al, J. Biol. Chem. 1998, 273, 33922–33928. The assay was performed using purified recombinant His-tagged AKT1/PKBα enzyme purchased from Upstate catalog # 14-276 following the manufacturer instruction. The assay is to measure phosphotransferase activity in purified His-tagged AKT1/PKBα. The purified enzyme is used to transfer the γ phosphate of [γ-32P]-ATP to a specific substrate, AKT/GSK peptide [RPRAATA] (upstate Catalog # 12-340). The phosphorylated substrate is then separated from the residual [γ-32P]ATP by using P81 phosphocellulose paper accompanied with extensive washing followed by quantitation using scintillation counter. The assay is linear for incubation times for up to 30 minutes and incorporation of up to 20% of total ATP. This enzyme assay is rapid, convenient and specific for AKT/PKB.
For testing the effect of Compound 2 on the AKT kinase activity, 0.3 μg AKT was pre-incubated with 1 μl of different Compound 2 stock concentration to give the final indicated concentration in total volume of 20 μl reaction buffer. As control 0.3 μg AKT was incubated with 1 μl Vehicle or alone in total volume of 20 μl reaction buffer. After a 10 minute incubation at 30° C., the kinase reaction was carried out according to the instruction of the manufacturer.

[3] = target: T2, PPARγ (Homo sapiens, UniProt P37231); test: In vitro transactivation assay in CV-1 cells, antagonism of BRL49653-induced Gal-PPARγ activation; assay type: cell-based; conditions: with 1 μM agonist BRL49653, dose-dependent
T2 construct: expressed in transfected cells; host or cells: CV-1 (green monkey kidney) cells, transient calcium phosphate transfection
T2 sequence (P37231 238-503 limits assumed): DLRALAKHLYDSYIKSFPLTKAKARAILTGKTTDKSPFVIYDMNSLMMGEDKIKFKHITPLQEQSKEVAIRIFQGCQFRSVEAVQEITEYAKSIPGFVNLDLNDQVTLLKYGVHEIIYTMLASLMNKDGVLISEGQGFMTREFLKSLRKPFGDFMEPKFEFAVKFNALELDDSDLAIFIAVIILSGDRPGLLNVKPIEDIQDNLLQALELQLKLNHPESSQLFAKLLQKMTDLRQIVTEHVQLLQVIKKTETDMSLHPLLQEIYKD
From the text: (§1) In vitro screens such as the transactivation assay can be used to measure the ability of a compound to inhibit a nuclear receptor regulating lipid or carbohydrate uptake, synthesis or metabolism. In the assay described herein compounds can be identified that can inhibit activation of the following nuclear receptors: LXR, PPARα, PPARγ and FXR. This activity can be useful to treat lipid disorders such as hypercholesteremia and obesity.
(§2) Cell line: Kidney Green Monkey CV-1 cells.
(§3) Growing culturing medium: Dulbecco's modified Eagle's medium (DMEM) supplememnted with 10% fetal calf serum (FCS).
(§4) Procedure: CV-1 cells were plated in 48 well-plate culture plates, at a density of 10,000 cells/well, 24 h prior to transfection. One to three hours before transfection, cells were fed with fresh medium. A modified calcium phosphate precipitation procedure was used for transient transfection (Pfahl, M. et al., 1990, Methods in Enzymology 189: 256).
(§5) Typically, 40 ng reporter plasmid and 20 ng of each receptor expression vector were mixed, together with 10 ng of β-galactosidase control plasmid (pCH110, Pharmacia, Piscataway, N.J.) and Bluescript plasmid to obtain a total of 400 ng DNA per well. To this mixture 1 μl of 2.5M CaCl2 and 10 μl of BBS buffer, pH 6.95, were added afterward. […]

[4] = tested on: LXR; test: In vitro transactivation assay in CV-1 cells, antagonism of T0901317-induced Gal-LXR activation; assay type: cell-based; conditions: with 1 μM agonist T0901317
From the text: as §1, §2, §3, §4, §5

SMILES	lipid accumulation / differentiation of 3T3-L1 cells by the compound alone [1]	inhibition of adipocyte differentiation / lipid accumulation induced by rosiglitazone (BRL49653) [1]	inhibition of AKT activity compared to Control or Vehicle [2]	other results
COc1ccc(/C=C2\SC(=S)N(CC(=O)O)C2=O)cc1-c1cc2c(cc1C)C(C)(C)CCC2(C)C [Compound 1, {5-[4-Methoxy-3-(3,5,5,8,8-pentamethyl-5,6,7,8-tetrahydro-naphthalen-2-yl)-benzylidene]-4-oxo-2-thioxo-thiazolidin-3-yl}-acetic acid]	lacked that ability	potently inhibited	–	–
Cc1cc2c(cc1-c1cc(/C=C3\SC(=S)N(CC(=O)O)C3=O)ccc1OC(F)(F)F)C(C)(C)CCC2(C)C [Compound 2, {5-[4-Trifluoromethoxy-3-(3,5,5,8,8-pentamethyl-5,6,7,8-tetrahydronaphthalen-2-yl)-benzylidene]-4-oxo-2-thioxo-thiazolidin-3-yl}-acetic acid]	lacked that ability	potently inhibited	showed inhibition	–
COc1ncc(/C=C2\SC(=S)N(CC(=O)O)C2=O)cc1-c1cc2c(cc1C)C(C)(C)CCC2(C)C [Compound 3, {5-[6-Methoxy-5-(3,5,5,8,8-pentamethyl-5,6,7,8-tetrahydro-naphthalen-2-yl)-pyridin-3-ylmethylene]-4-oxo-2-thioxo-thiazolidin-3-yl}-acetic acid]	–	–	showed inhibition	–
COc1ccc(/C=C2\SC(=O)N(CCc3ccccn3)C2=O)cc1-c1cc2c(cc1C)C(C)(C)CCC2(C)C [Compound 6, 5-[4-Methoxy-3-(3,5,5,8,8-pentamethyl-5,6,7,8-tetrahydro-naphthalen-2-yl)-benzylidene]-3-(2-pyridin-2-yl-ethyl)-thiazolidine-2,4-dione]	–	–	–	melting point: 170 to 171 °C
COc1cc2c(cc1-c1c(/C=C3\SC(=S)N(CC(=O)O)C3=O)cc(-c3ccccc3)cc1OC)C(C)(C)CCC2(C)C [Compound 8, {5-[5-Phenyl-3-methoxy-2-(3-methoxy-5,5,8,8-tetramethyl-5,6,7,8-tetrahydro-naphthalen-2-yl)-benzylidene]-4-oxo-2-thioxo-thiazolidin-3-yl}-acetic acid]	lacked the ability to differentiate 3T3-L1 cells by themselves	strongly inhibited	–	inhibition at 10 µM [3]: 80 to 90%; antagonism of T0901317-induced LXR activation (in words) [4]: only antagonize the activation activity of BRL49653 for PPARγ
CN(C)c1ccc(/C=C2\SC(=S)N(CC(=O)O)C2=O)cc1-c1cc2c(cc1N(C)C)C(C)(C)CCC2(C)C [Compound 10, {5-[4-Dimethylamino-3-(3-dimethylamino-5,5,8,8-tetramethyl-5,6,7,8-tetrahydro-naphthalen-2-yl)-benzylidene]-4-oxo-2-thioxo-thiazolidin-3-yl}-acetic acid]	–	–	showed inhibition	–
CCOc1ccc(-c2ccc(OC)c(C(C)(C)C)c2)cc1/C=C1\SC(=S)N(CC(=O)O)C1=O [Compound 67]	–	–	showed inhibition	–
COc1ccc(/C=C2\SC(=S)NC2=O)cc1-c1cc2c(cc1C)C(C)(C)CCC2(C)C [Compound 71, reference compound]	induced lipid accumulation	–	–	–
COc1cc2c(cc1-c1c(/C=C3\SC(=S)N(CC(=O)O)C3=O)cc(-c3ccccc3)cc1OC)C(C)(C)CCC2(C)C [Compound 72, reference compound]	induced lipid accumulation	–	–	–
